# Source: paper PMC10056257 (Journal of medicinal chemistry, 2023)
# Marks after values point to notes of the source that are not given here.
# Legend:
# [1] = system: Anaerostipes caccae DSM 14662; assay: MIC against anaerobic bacteria; format: cell-based; conditions: A. caccae DSM 14662, anaerobic
# [2] = system: Methicillin-resistant S. aureus (MRSA) ClpX; conditions: read-out: IC50, ClpX ATPase activity; cited from earlier work
# [3] = system: Escherichia coli K12; assay: MIC, broth microdilution; format: cell-based; conditions: E. coli K12
# [4] = system: Pseudomonas aeruginosa PA01; assay: MIC, broth microdilution; format: cell-based; conditions: P. aeruginosa PA01
# [5] = system: Acinetobacter baumannii 2208; assay: MIC, broth microdilution; format: cell-based; conditions: A. baumannii 2208
# [6] = system: E. coli nonpathogenic ATCC MG1655; assay: MIC determination; format: cell-based, Escherichia coli
# [7] = Simulated intestinal fluid stability; format: in vitro ADME; conditions: SIF pH 7.60 with pancreatin, 24 h
# [8] = system: Lactobacillus plantarum DSM 20174; assay: MIC against L. plantarum; format: cell-based; conditions: L. plantarum DSM 20174
# [9] = system: Bacteroides thetaiotaomicron DSM 2079; assay: MIC against anaerobic bacteria; format: cell-based; conditions: B. thetaiotaomicron DSM 2079, anaerobic
# [10] = system: S. aureus USA 300 JE2; assay: MIC, broth microdilution; format: cell-based, Staphylococcus aureus
# [11] = system: Lactobacillus rhamnosus CGMCC 1.3724; assay: MIC against L. rhamnosus; format: cell-based; conditions: L. rhamnosus CGMCC 1.3724
# [12] = system: S. typhimurium TA100; conditions: positive control, TA100, S9−, 2.5 μg/plate
compound,measurement,setting,value
"CC[C@H]1OC(=O)[C@H](C)[C@@H](O[C@H]2C[C@@](C)(OC)[C@@H](O)[C@H](C)O2)[C@H](C)[C@@H](O[C@@H]2O[C@H](C)C[C@H](N(C)C)[C@H]2O)[C@](C)(O)C[C@@H](C)CN(C)[C@H](C)[C@@H](O)[C@]1(C)O [AZM, azithromycin, reference compound]",MIC,[1],no susceptibility
"O=C1C2=C(Nc3ccccc3SC2c2cccc(O)c2)c2ccccc21 (stereo not shown) [compound 334, 11-(3-Hydroxyphenyl)-5,11-dihydro-12H-benzo[b]indeno[1,2-e][1,4]thiazepin-12-one]",IC50,[2],800 nM
"N#Cc1ccccc1C1Sc2ccccc2NC2=C1C(=O)c1ccccc12 (stereo not shown) [5a, 2-(12-Oxo-11,12-dihydro-5H-benzo[b]indeno[1,2-e][1,4]thiazepin-11-yl)benzonitrile]",MIC,[3],inactive
same,MIC,[4],inactive
same,MIC,[5],inactive
same,MIC,[6],completely inactive
same,percentage of drug remaining,[7],around 85%
same,MIC,[1],completely inactive
same,MIC,[8],no antibacterial activity
same,MIC,[9],completely inactive
same,MIC,[10],inactive
same,MIC,[11],no antibacterial activity
Sodium azide,number of revertants/plate,[12],260.70 ± 15.30^e revertants/plate
